# Values joined by “and” are separate entries in the source; they are usually repeats but may differ in a detail not shown here. Equal values may be shown once. No end group written: not given here.
# Tests used:
# [1] = test system: TWEAK-Fn14 signalling pathway, BRV5 cells; assay: Cell-based screening of individual peptides, gene expression microarray in TWEAK-stimulated BRV5 cells; set-up: species or system human; conditions: 6 h; for BIRC2 mRNA expression (normalized to NARS2) / HSP90B1 mRNA expression (normalized to NARS2) / IL6 mRNA expression (normalized to NARS2) / JUN mRNA expression (normalized to NARS2) / MAP4K4 mRNA expression (normalized to NARS2) / MAPK14 mRNA expression (normalized to NARS2) / NFKB2 mRNA expression (normalized to NARS2) / TNFRSF12A mRNA expression (normalized to NARS2) / TRAF2 mRNA expression (normalized to NARS2): 450 µM
# From the text: Pool 1 and 5 were therefore deconstructed to assess the effect of individual peptides and their activity on same cell-based screening. Pools 1 and 5 were composed of peptides 45, 46, 42, 3, 49, 11, and 13; and of peptides 1, 9, 30, 35, 41, 43, 7, and 14, respectively. As before, and shown in Figure 4B, the level of expression of probe genes on TWEAK-stimulated (T) BRV5 cells is overall higher than on non-stimulated (NT) one. […] The structural model of peptides 43, 30, 35 and 49 bound to TWEAK can be seen in Figure 5 and Supplementary Materials Figures S4–S6, respectively.
# Three different cell lines were used in this study: BRV5, MDA-MB 435 (435-P), and HT29. The BRV5 is a highly metastatic brain cell line, obtained in one of our laboratories by primary culture from a brain of a nude mouse inoculated with human 435-Br1 brain metastatic cells, as previously described and used as a model to test the peptides in cell cultures. […] The triple negative 435-P cell line is a useful human breast cancer model that expresses both epithelial and melanocytic markers, and was included as the parental cell from which 435-Br1 metastatic variant was initially originated (both cell lines kindly provided by Dr Fabra at IDIBELL Institute, Hospitalet de Llobregat, Spain). Finally, HT29 human colon carcinoma cells obtained from the European Type Culture Collection (ECACC 91072201) were used as a positive control of TWEAK dependent Fn14 over-expressing cells to evaluate TWEAK-Fn14 axis of brain metastatic variants.
# Appropriate cell culture conditions were established as the controls needed in the expression of genes with and without peptides and with and without TWEAK activation, both as pools and individually (see Supplementary Materials Figure S2). The protocol started with the seeding of 125,000 cells/well in 500 µL of culture media supplemented with 10% fetal bovine serum (CM+FBS10%) in 24-well dishes for 24 h before removing FBS (CM-FBS). After overnight starvation in CM-FBS culture, different peptide treatment conditions (at final concentration of 450 µM) were established in the presence or absence of TWEAK (25 ng/mL final concentration) (Peprotech EC, Ltd., London, UK). Some cells were treated with peptides at a single, unique, initial dose (time 0) while other were treated with repeated doses to account for the effect cell-culture degradation. These include a repeated treatment every hour (i.e., […]), every two hours (time 0, 2, and 4) and every three hours (time 0 and 3)—see Supplementary Materials Figure S2 for diagrammatic depiction. At time 6 (after six hours) cells were lysed and RNA extracted for transcriptomic analyses (see next). Cell were culture for six hours as this was the time needed to achieve the highest upregulation of the TWEAK-Fn14 axis upon TWEAK treatment as shown in previous time-course RT-PCR experiments (see Figure 2).
# RNA from cells was extracted 6 h after treatments by direct lysis on the well. The RNeasy Micro kit (Qiagen, Hilden, Germany) was used to isolate total RNA from cell lysate following manufacturer’s protocols including an additional step of digestion with DNase I (Qiagen, Hilden, Germany). Total RNA concentration was measured in a NanoDrop 1000 spectrophotometer (Thermo Scientific, Waltham, MA, USA). The RNA extracted from treated and untreated cells (see above) was used as a proxy for gene expression.
# The quantitative RT-PCR was performed using Fluidigm Dynamic Array FlexSix array with the specific primers for gene expression (Delta Genes Assays, Wet lab tested on Dynamic Array IFC) designed to RefSeq for detection by pPCR EvaGreen assay (Dynamic Array FlexSix, Fluidigm Corporation). Each Flex Six IFC has a total of six independent partitions. Each partition has a 12 × 12 format (12 assay inlets and 12 sample inlets) and will be run independently as a separate experimental run. […]
# [2] = Precipitation in SPR running buffer; format: physicochemical; conditions: running buffer HBS-EP pH 7.4, 6.25 µM to 800 µM, 25 °C
# Description: (§1) After chip validation, peptides selected on our cell-based microarray screening were tested.
# Binding assays were performed at 25 °C in a Biacore 3000 instrument (GE Healthcare, Uppsala, Sweden) using nitrilotriacetic (NTA) sensor chips (GE Healthcare) and HBS-EP (0.01 M HEPES pH 7.4, 0.15 M NaCl, 3 mM EDTA, 0.005 % v/v Surfactant P20) as running buffer. Histidine-tagged human TWEAK (His6-TWEAK) protein (R&D Systems, Minneapolis, MN, USA) was covalently immobilized on the sensor surface using a capture coupling method. Briefly, the NTA surface was first stabilized by injection of regeneration buffer (20 μL EDTA-containing running buffer at 20 μL/min) followed by Ni^2+ binding to the surface (40 μL of 500 μM NiCl2 in running buffer at 20 μL/min). The carboxymethyl dextran surface was then activated for primary amine coupling by injecting coupling solution (30 μL of a 1:1 N-hydroxysuccinimide (NHS)/1-ethyl-3-[3-(dimethylamino)-propyl]carbodiimide hydrochloride (EDC) mixture at 5 μL/min). […]
# Binding experiments using a monoclonal anti-TWEAK antibody (Abcam ref. 199405, Cambridge, UK) were run to ascertain adequate functionalization of the immobilized surface. […] The dissociation phase was monitored for 10 min at the same flow rate and followed by a regeneration step with 10 µL of 18 mM NaOH. […]
# human His6-TWEAK protein = target: T1, human His6-TWEAK protein (Homo sapiens, UniProt O43508); assay: SPR binding of peptides to immobilized His6-TWEAK; conditions: 25 °C, 1:1 Langmuir global fit, representative of at least three independent experiments; for kon: HBS-EP pH 7.4, Biacore 3000, NTA chip, read-out: ka; for Kd: figure 6, HBS-EP pH 7.4, 6.25 µM to 800 µM peptide
# T1 construct: purchased R&D Systems
# T1 sequence (O43508 97-249 limits assumed): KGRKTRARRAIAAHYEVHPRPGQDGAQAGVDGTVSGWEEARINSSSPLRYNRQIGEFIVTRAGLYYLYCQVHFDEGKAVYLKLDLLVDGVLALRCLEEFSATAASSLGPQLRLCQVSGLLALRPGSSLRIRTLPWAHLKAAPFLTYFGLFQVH
# From the text: SPR biosensor interaction analysis, a label-free screening approach, was used for real-time monitoring of the kinetics and affinity of peptide hits to TWEAK previously identified by cell-based screening. Peptides from pools 1 and 5 were selected both as positive (49, 30, 35 and 43) and negative hits (1 and 42). For our purposes, TWEAK was chosen as ligand, while peptides were chosen as analytes and passed across ligand-derivatized surface. Nitrilotriacetic acid-coated sensor chips (NTA chip) and a coupling approach that results in the capture of a His6-protein in a non-random orientation by the His6 epitope prior to direct free amine-based covalent coupling was used for histidine-tagged TWEAK immobilization.
# as §1
# For each titration, a zero-analyte surface as a control was subtracted from test sensorgram as well as non-specific binding to the blank flow cell without protein; and the chip surface was regenerated in order to remove any remaining analyte. The black curves show the experimental data, while the overlaid red lines represent a global fit of the entire data set to a 1:1 Langmurian interaction model. The fitting process provided both kinetic association and dissociation rate constants (Ka and Kd), as well as equilibrium dissociation constant (KD) values indicated in Figure 6.
# Binding assays were performed at 25 °C in a Biacore 3000 instrument (GE Healthcare, Uppsala, Sweden) using nitrilotriacetic (NTA) sensor chips (GE Healthcare) and HBS-EP (0.01 M HEPES pH 7.4, 0.15 M NaCl, 3 mM EDTA, 0.005 % v/v Surfactant P20) as running buffer. Histidine-tagged human TWEAK (His6-TWEAK) protein (R&D Systems, Minneapolis, MN, USA) was covalently immobilized on the sensor surface using a capture coupling method. Briefly, the NTA surface was first stabilized by injection of regeneration buffer (20 μL EDTA-containing running buffer at 20 μL/min) followed by Ni^2+ binding to the surface (40 μL of 500 μM NiCl2 in running buffer at 20 μL/min). The carboxymethyl dextran surface was then activated for primary amine coupling by injecting coupling solution (30 μL of a 1:1 N-hydroxysuccinimide (NHS)/1-ethyl-3-[3-(dimethylamino)-propyl]carbodiimide hydrochloride (EDC) mixture at 5 μL/min). His6-TWEAK protein in pH 7.4 running buffer was then injected over the surface (60 μL of 10 μg/mL His6-TWEAK at 5 μL/min). To block uncoupled primary amines on the sensor surface, ethanolamine was passed over the surface (35 μL 1M ethanolamine at 5 μL/min). Ligand surfaces were finally conditioned with a 20 µL injection of regeneration solution containing 350 mM EDTA at 20 μL/min. Immobilization levels ranged from 1500 to 7000 resonance units (RUimmob) to test different ligand densities. A blank flow cell on the chip was created by simple injection of 20 μL of regeneration buffer injected over the sensor surface.
# Binding experiments using a monoclonal anti-TWEAK antibody (Abcam ref. 199405, Cambridge, UK) were run to ascertain adequate functionalization of the immobilized surface. Selected synthetic TWEAK-Fn14 inhibitory peptides at two-fold serial dilutions from 800 µM to 0 µM in running buffer were flown over the chip for 5 min at 35 µL/min. The dissociation phase was monitored for 10 min at the same flow rate and followed by a regeneration step with 10 µL of 18 mM NaOH. Specific binding responses for each channel were obtained by double referencing; subtracting non-specific binding to the blank flow cell plus an internal reference standard, namely buffer injection response. Each sample was run in triplicate. The experimental data were fitted to a 1:1 Langmuir binding model by the BIAevaluation software version 4.1 (GE Healthcare, Uppsala, Sweden).
# [3] = individual peptides, BRV5 + TWEAK, mean of replicate columns
# [4] = individual peptides, BRV5 + TWEAK, replicate column 1
# [5] = individual peptides, BRV5 + TWEAK, replicate column 2
# [6] = individual peptides, BRV5 + TWEAK, normalized to NARS2, listed as P30
substance,measurement,setting,value
30: DNGGGNTDIYSE [Peptide 30],regulation of probe genes by individual peptides,"[1]; BRV5 + TWEAK 25 ng/mL, peptides 450 µM",lowest overall expression across all genes
same,BIRC2 mRNA expression (normalized to NARS2),[1]; [3],0.4705
same,HSP90B1 mRNA expression (normalized to NARS2),[1]; [3],1.723
same,IL6 mRNA expression (normalized to NARS2),[1]; [3],0.001837
same,JUN mRNA expression (normalized to NARS2),[1]; [3],0.05309
same,MAP4K4 mRNA expression (normalized to NARS2),[1]; [3],0.1227
same,MAPK14 mRNA expression (normalized to NARS2),[1]; [3],0.1367
same,NFKB2 mRNA expression (normalized to NARS2),[1]; [3],0.02657
same,TNFRSF12A mRNA expression (normalized to NARS2),[1]; [3],0.01074
same,TRAF2 mRNA expression (normalized to NARS2),[1]; [3],0.01042
same,BIRC2 mRNA expression (normalized to NARS2),[1]; [4],0.46
same,HSP90B1 mRNA expression (normalized to NARS2),[1]; [4],1.5246
same,IL6 mRNA expression (normalized to NARS2),[1]; [4],0.001779
same,JUN mRNA expression (normalized to NARS2),[1]; [4],0.05111
same,MAP4K4 mRNA expression (normalized to NARS2),[1]; [4],0.1133
same,MAPK14 mRNA expression (normalized to NARS2),[1]; [4],0.1336
same,NFKB2 mRNA expression (normalized to NARS2),[1]; [4],0.02493
same,TNFRSF12A mRNA expression (normalized to NARS2),[1]; [4],0.00974
same,TRAF2 mRNA expression (normalized to NARS2),[1]; [4],0.009779
same,BIRC2 mRNA expression (normalized to NARS2),[1]; [5],0.481
same,HSP90B1 mRNA expression (normalized to NARS2),[1]; [5],1.9206
same,IL6 mRNA expression (normalized to NARS2),[1]; [5],0.001894
same,JUN mRNA expression (normalized to NARS2),[1]; [5],0.05506
same,MAP4K4 mRNA expression (normalized to NARS2),[1]; [5],0.1321
same,MAPK14 mRNA expression (normalized to NARS2),[1]; [5],0.1398
same,NFKB2 mRNA expression (normalized to NARS2),[1]; [5],0.02821
same,TNFRSF12A mRNA expression (normalized to NARS2),[1]; [5],0.01174
same,TRAF2 mRNA expression (normalized to NARS2),[1]; [5],0.01106
same,BIRC2 expression Z-Score,[1]; [6],-0.6095
same,HSP90B1 expression Z-Score,[1]; [6],-0.9208
same,IL6 expression Z-Score,[1]; [6],-0.0450 and -0.04503
same,JUN expression Z-Score,[1]; [6],-0.5095
same,MAP4K4 expression Z-Score,[1]; [6],-1.5551 and -1.555
same,MAPK14 expression Z-Score,[1]; [6],-1.1124 and -1.112
same,NFKB2 expression Z-Score,[1]; [6],-1.3232 and -1.323
same,TNFRSF12A expression Z-Score,[1]; [6],-1.112
same,TRAF2 expression Z-Score,[1]; [6],-0.4386
same,precipitation,[2],precipitated at all concentrations tested
SYTDVQDS-NH2 [Peptide 49],kon,human His6-TWEAK protein,4.88 M⁻¹ s⁻¹
same,Kd,human His6-TWEAK protein,533 µM
TTDGSTGDDLQA-NH2 [Peptide 43],kon,human His6-TWEAK protein,20.5 M⁻¹ s⁻¹
same,Kd,human His6-TWEAK protein,173 µM
